Source: article PMC10902378, “Effective engineering of a ketoreductase for the biocatalytic synthesis of an ipatasertib precursor” (Communications Chemistry, 2024)

Key:
[1] = molecular target: T1, Ssal-KRED (Sporobolomyces salmonicolor, UniProt Q9UUN9); test: UV assay at […] nm, Michaelis-Menten fit; assay type: biochemical; conditions: apparent; NADP+/iPrOH as hydride donor; purified His-tagged enzyme; read-out: app. KM
T1 construct: N-terminal 6xHis-tag, pET28b(+), purified; recombinant from E. coli
T1 sequence (Q9UUN9 2-343): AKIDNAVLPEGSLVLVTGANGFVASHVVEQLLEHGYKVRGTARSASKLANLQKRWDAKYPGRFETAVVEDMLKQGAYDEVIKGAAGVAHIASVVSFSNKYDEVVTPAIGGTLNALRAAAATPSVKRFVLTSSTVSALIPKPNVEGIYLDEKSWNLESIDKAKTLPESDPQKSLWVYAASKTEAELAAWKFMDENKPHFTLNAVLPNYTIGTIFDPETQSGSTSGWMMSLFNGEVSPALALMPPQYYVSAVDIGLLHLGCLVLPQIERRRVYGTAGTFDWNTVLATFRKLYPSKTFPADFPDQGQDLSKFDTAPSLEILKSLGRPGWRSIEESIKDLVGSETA

[2] = molecular target: T2, Ssal-KRED (Sporobolomyces salmonicolor, UniProt Q9UUN9, F97W/T134V/S224A/A238K/L241M/M242W/Q245S/Y246G/L316M/T342M); test: UV assay at […] nm, Michaelis-Menten fit; assay type: biochemical; conditions: apparent; NADP+/iPrOH as hydride donor; purified His-tagged enzyme; read-out: app. KM
T2 construct: N-terminal 6xHis-tag, pET28b(+), purified; recombinant from E. coli
T2 sequence (Q9UUN9 2-343 F97W/T134V/S224A/A238K/L241M/M242W/Q245S/Y246G/L316M/T342M): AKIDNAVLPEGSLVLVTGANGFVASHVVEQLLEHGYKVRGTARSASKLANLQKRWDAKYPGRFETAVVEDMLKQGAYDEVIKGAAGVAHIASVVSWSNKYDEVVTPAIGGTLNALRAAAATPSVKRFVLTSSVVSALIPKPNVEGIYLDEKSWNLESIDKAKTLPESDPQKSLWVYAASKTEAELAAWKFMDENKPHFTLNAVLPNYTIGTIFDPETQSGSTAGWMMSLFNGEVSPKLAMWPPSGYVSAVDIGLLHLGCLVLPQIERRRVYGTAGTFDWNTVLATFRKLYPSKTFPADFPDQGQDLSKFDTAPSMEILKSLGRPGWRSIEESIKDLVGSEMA

[3] = molecular target: T3, Ssal-KRED (Sporobolomyces salmonicolor, UniProt Q9UUN9, F97W/A238K/L241M/M242W/Q245S/L316M/T342M); test: UV assay at […] nm, Michaelis-Menten fit; assay type: biochemical; conditions: apparent; NADP+/iPrOH as hydride donor; purified His-tagged enzyme; read-out: app. KM
T3 construct: N-terminal 6xHis-tag, pET28b(+), purified; recombinant from E. coli
T3 sequence (Q9UUN9 2-343 F97W/A238K/L241M/M242W/Q245S/L316M/T342M): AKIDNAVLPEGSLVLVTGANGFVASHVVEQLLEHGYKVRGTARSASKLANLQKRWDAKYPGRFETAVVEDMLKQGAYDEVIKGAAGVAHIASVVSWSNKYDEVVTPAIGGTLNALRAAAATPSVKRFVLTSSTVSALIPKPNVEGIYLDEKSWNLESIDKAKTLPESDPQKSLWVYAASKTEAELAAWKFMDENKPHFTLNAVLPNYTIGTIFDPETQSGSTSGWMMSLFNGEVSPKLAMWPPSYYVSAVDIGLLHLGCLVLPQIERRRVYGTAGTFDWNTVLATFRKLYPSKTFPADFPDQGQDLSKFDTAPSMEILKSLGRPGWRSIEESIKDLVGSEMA

[4] = molecular target: T4, Ssal-KRED (Sporobolomyces salmonicolor, UniProt Q9UUN9, F97W/L241M/M242W/Q245S); test: UV assay at […] nm, Michaelis-Menten fit; assay type: biochemical; conditions: apparent; NADP+/iPrOH as hydride donor; purified His-tagged enzyme; read-out: app. KM
T4 construct: N-terminal 6xHis-tag, pET28b(+), purified; recombinant from E. coli
T4 sequence (Q9UUN9 2-343 F97W/L241M/M242W/Q245S): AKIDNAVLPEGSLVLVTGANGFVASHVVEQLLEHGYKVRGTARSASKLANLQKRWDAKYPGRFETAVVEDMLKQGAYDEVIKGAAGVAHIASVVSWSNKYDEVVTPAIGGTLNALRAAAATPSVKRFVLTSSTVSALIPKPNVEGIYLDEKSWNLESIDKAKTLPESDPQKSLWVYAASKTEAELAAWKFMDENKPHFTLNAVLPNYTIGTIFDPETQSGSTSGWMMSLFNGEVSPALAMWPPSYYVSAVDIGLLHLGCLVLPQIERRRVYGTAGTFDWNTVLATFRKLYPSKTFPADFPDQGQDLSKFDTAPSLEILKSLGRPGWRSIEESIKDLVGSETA

[5] = molecular target: T5, Ssal-KRED (Sporobolomyces salmonicolor, UniProt Q9UUN9, F97W/L241M/M242W/Q245S/L316M/T342M); test: UV assay at […] nm, Michaelis-Menten fit; assay type: biochemical; conditions: apparent; NADP+/iPrOH as hydride donor; purified His-tagged enzyme; read-out: app. KM
T5 construct: N-terminal 6xHis-tag, pET28b(+), purified; recombinant from E. coli
T5 sequence (Q9UUN9 2-343 F97W/L241M/M242W/Q245S/L316M/T342M): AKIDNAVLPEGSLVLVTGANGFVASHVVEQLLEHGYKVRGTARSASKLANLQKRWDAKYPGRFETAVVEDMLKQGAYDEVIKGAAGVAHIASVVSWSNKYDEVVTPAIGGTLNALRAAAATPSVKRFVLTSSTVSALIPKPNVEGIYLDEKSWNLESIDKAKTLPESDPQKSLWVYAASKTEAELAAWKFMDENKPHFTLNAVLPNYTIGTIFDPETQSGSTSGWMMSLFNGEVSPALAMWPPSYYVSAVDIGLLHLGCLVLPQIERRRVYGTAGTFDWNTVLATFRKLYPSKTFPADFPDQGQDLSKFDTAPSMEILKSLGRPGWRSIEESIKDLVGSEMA

[6] = molecular target: T6, Ssal-KRED (Sporobolomyces salmonicolor, UniProt Q9UUN9, F97W/S224A/A238K/L241M/M242W/Q245S/Y246G/L316M/T342M); test: UV assay at […] nm, Michaelis-Menten fit; assay type: biochemical; conditions: apparent; NADP+/iPrOH as hydride donor; purified His-tagged enzyme; read-out: app. KM
T6 construct: N-terminal 6xHis-tag, pET28b(+), purified; recombinant from E. coli
T6 sequence (Q9UUN9 2-343 F97W/S224A/A238K/L241M/M242W/Q245S/Y246G/L316M/T342M): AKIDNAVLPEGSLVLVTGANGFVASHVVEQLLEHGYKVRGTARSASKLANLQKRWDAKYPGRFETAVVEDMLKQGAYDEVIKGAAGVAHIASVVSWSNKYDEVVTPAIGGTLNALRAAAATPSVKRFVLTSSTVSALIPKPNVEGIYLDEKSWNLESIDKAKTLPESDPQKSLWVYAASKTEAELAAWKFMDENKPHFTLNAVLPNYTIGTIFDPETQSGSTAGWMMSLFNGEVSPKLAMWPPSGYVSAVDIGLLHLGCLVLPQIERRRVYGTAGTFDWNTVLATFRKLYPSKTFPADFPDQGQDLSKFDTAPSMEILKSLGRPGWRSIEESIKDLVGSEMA

[7] = substrate: C[C@@H]1CC(=O)c2ncnc(N3CCN(C(=O)OC(C)(C)C)CC3)c21; test: purified protein; assay type: biochemical, Sporobolomyces salmonicolor; conditions: apparent; NADP+/iPrOH as hydride donor; purified His-tagged enzyme; substrate saturation was not reached

C[C@@H]1CC(=O)c2ncnc(N3CCN(C(=O)OC(C)(C)C)CC3)c21 [1a, ketone 1a]
Km [1]: 11.9 ± 1.1 µM | Km [2]: 144 ± 5.5 µM | Km [3]: 300 ± 7.9 µM | Km [4]: 163 ± 7.8 µM | Km [5]: 175 ± 9.9 µM | Km [6]: 472 ± 34.6 µM

B1: Ssal-KRED (Sporobolomyces salmonicolor; A238K/F97W/L241M/L316M/M242W/Q245S/T342M/Y246G) (protein)
chain: AKIDNAVLPEGSLVLVTGANGFVASHVVEQLLEHGYKVRGTARSASKLANLQKRWDAKYPGRFETAVVEDMLKQGAYDEVIKGAAGVAHIASVVSWSNKYDEVVTPAIGGTLNALRAAAATPSVKRFVLTSSTVSALIPKPNVEGIYLDEKSWNLESIDKAKTLPESDPQKSLWVYAASKTEAELAAWKFMDENKPHFTLNAVLPNYTIGTIFDPETQSGSTSGWMMSLFNGEVSPKLAMWPPSGYVSAVDIGLLHLGCLVLPQIERRRVYGTAGTFDWNTVLATFRKLYPSKTFPADFPDQGQDLSKFDTAPSMEILKSLGRPGWRSIEESIKDLVGSEMA
notes: N-terminal 6xHis-tag, pET28b(+), purified; recombinant from E. coli
Km [7]: 1668 ± 103 µM | kcat [7]: 0.763 ± 0.04 s⁻¹ | kcat/Km [7]: 458 M⁻¹ s⁻¹
